Structures can show the parent of a compound that is named as a salt.
biological target: T1, 5-HT3 (Homo sapiens, UniProt P46098); test: Compound affinity for the human 5-HT3 receptor (Assay B), SPA radioligand binding with [9-methyl-3H]BRL-43694; parameters: purchased Perkin Elmer; conditions: Assay B (method B unless otherwise annotated); read-out: 5-HT3 Ki
T1 sequence (P46098 24-478): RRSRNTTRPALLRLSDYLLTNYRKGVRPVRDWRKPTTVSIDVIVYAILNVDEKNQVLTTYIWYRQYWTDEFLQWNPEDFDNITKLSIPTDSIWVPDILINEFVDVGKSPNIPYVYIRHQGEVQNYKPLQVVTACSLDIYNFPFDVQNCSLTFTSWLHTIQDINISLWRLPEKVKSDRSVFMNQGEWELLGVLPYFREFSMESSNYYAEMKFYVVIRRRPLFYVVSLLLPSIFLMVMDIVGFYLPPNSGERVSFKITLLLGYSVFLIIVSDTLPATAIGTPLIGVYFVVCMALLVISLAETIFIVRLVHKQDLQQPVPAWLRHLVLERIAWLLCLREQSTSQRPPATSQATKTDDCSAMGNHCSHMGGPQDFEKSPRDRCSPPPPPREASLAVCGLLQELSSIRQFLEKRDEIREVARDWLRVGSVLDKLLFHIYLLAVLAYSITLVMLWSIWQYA
Description: Compound Affinity for the human 5-HT3 Receptor (Assay B)
The relative affinity of the various compounds for the human 5-HT3 receptor was measured in a radioligand binding assay, using a scintillation proximity assay (SPA) format. Test compounds were dissolved to 10 mM in 100% DMSO, then serially diluted at 10× assay concentrations in 100% DMSO in 96-well polypropylene plates and further diluted to 4× assay concentrations with the assay buffer. […] Binding reactions were set up in wells of PicoPlates-96 (Perkin Elmer) by adding consecutively 50 μL of each competing compound or buffer, SPA beads, the radioligand and 5-HT3 receptor membranes. After 60-min incubation at room temperature on a Nutator mixer, plates were centrifuged for 15 min at 1,500 rpm, followed by incubation in the dark for 30 min. Radioactivity was counted in the TopCount microplate counter (Perkin Elmer) for 5 min. […] Specific binding was determined by subtracting nonspecific binding from total binding. All experiments were performed in duplicate using ten concentrations of a competing ligand, with ondansetron included as a control in every run. IC50 values were determined from specific binding data using XLfit4.1 curve fitting software from IDBS Ltd. Ki values were then calculated from the Cheng-Prusoff equation.

In order of falling Ki:
1. CN1CCN(c2nc3c(C(=O)N[C@@H]4CN5CCC4CC5)cccc3o2)CC1 [Example 2, (S)—N-(quinuclidine-8-yl)-2-(4-methylpiperazin-1-yl)benzoxazole-4-carboxamide Dihydrochloride]  382 nM
2. CN1C2CCCC1CC(NC(=O)c1cccc3oc(NC4CC5CCCC(C4)N5C)nc13)C2 (stereo not drawn) [Example 37, Endo-N-(9-Methyl-9-azabicyclo[3.3.1]nonan-3-yl)-2-(9-Methyl-9-azabicyclo[3.3.1]non-3-ylamino)benzoxazole-4-carboxamide Trihydrochloride]  243 nM
3. CC1CNCCN1c1nc2c(C(=O)NC3CN4CCC3CC4)cccc2o1 [Example 26, (S)—N-(quinuclidine-8-yl)-2-(2-methylpiperazin-1-yl)benzoxazole-4-carboxamide Dihydrochloride]  241 nM
4. CN1CCN(c2nc3c(C(=O)NC4CN5CCC4CC5)cccc3o2)C(c2ccccc2)C1 (racemic) [Example 24, (S)—N-(quinuclidine-8-yl)-2-(4-methyl-2-phenylpiperazin-1-yl)benzoxazole-4-carboxamide Dihydrochloride]  103 nM
5. CC1CN(c2nc3c(C(=O)N[C@H]4C[C@H]5CCC[C@@H](C4)N5C)cccc3o2)CCN1 (stereo partly drawn) [Example 95, Endo-N-(9-Methyl-9-azabicyclo[3.3.1]nonan-3-yl)-2-(3-methylpiperazin-1-yl)benzoxazole-4-carboxamide Hydrochloride]  52.4 nM
6. CN1[C@@H]2CCC[C@H]1C[C@@H](NC(=O)c1cccc3oc(N4CCOCC4)nc13)C2 [Example 9, Endo-N-(9-Methyl-9-azabicyclo[3.3.1]non-3-yl)-2-morpholinobenzoxazole-4-carboxamide Hydrochloride]  42 nM
7. COC1CCN(c2nc3c(C(=O)N[C@H]4C[C@H]5CCC[C@@H](C4)N5C)cccc3o2)CC1 [Example 89, Endo-N-(9-Methyl-9-azabicyclo[3.3.1]nonan-3-yl)-2-(4-methoxypiperidin-1-yl)benzoxazole-4-carboxamide Hydrochloride]  36.9 nM
8. CN1[C@@H]2CCC[C@H]1C[C@@H](NC(=O)c1cccc3oc(N4CCn5ccnc5C4)nc13)C2 [Example 79, Endo-N-(9-Methyl-9-azabicyclo[3.3.1]nonan-3-yl)-2-(5,6-dihydroimidazo[1,2-a]pyrazin-7(8H)-yl)benzoxazole-4-carboxamide Hydrochloride]  29.3 nM
9. CN1[C@@H]2CCC[C@H]1C[C@@H](NC(=O)c1cccc3oc(N4CCC(=O)CC4)nc13)C2 [Example 92, Endo-N-(9-methyl-9-azabicyclo[3.3.1]nonan-3-yl)-2-(4-oxopiperidin-1-yl)benzoxazole-4-carboxamide Hydrochloride]  21.2 nM
10. C[C@H]1COC[C@H](C)N1c1nc2c(C(=O)NC3CC4CCCC(C3)N4)cccc2o1 (stereo partly drawn) [Example 81, Endo-N-(9-Azabicyclo[3.3.1]nonan-3-yl)-2-((3S,5S)-3,5-dimethylmorpholino)benzoxazole-4-carboxamide Hydrochloride]  16.8 nM
11. CN1C2CCCC1CC(NC(=O)c1cccc3oc(N4CCN[C@H]5CCCC[C@@H]54)nc13)C2 (stereo partly drawn) [Example 126, Endo-N-(9-Methyl-9-azabicyclo[3.3.1]nonan-3-yl)-2-((4aS,8aS)-octahydroquinoxalin-1(2H)-yl)benzoxazole-4-carboxamide Dihydrochloride]  16.5 nM
12. C[C@H]1CNC[C@H](C)N1c1nc2c(C(=O)NC3CC4CCCC(C3)N4C)ccc(F)c2o1 (stereo partly drawn) [Example 107, Endo-N-(9-Methyl-9-azabicyclo[3.3.1]nonan-3-yl)-2-((2S,6S)-2,6-dimethylpiperazine-1-yl)-7-fluorobenzoxazole-4-carboxamide hydrochloride]  14.2 nM
13. CCNc1nc2c(C(=O)NC3CN4CCC3CC4)cccc2o1 [Example 104, (S)—N-(Quinulidin-8-yl)-2-ethylaminobenzoxazole-4-carboxamide Hydrochloride]  13.5 nM
14. C[C@H]1CNCCN1c1nc2c(C(=O)NC3CC4CCCC(C3)N4C)cc(Cl)cc2o1 (stereo partly drawn) [Example 57, Endo-N-(9-methyl-9-azabicyclo[3.3.1]nonan-3-yl)-6-chloro-2-((S)-2-methylpiperazin-1-yl)benzoxazole-4-carboxamide Hydrochloride]  11.4 nM
15. CN1[C@@H]2CCC[C@H]1C[C@@H](NC(=O)c1cccc3oc(N)nc13)C2 [Example 35, Endo-N-(9-Methyl-9-azabicyclo[3.3.1]non-3-yl)-2-aminobenzoxazole-4-carboxamide Hydrochloride]  9.1 nM
16. COCCNc1nc2c(C(=O)N[C@H]3C[C@H]4CCC[C@@H](C3)N4C)cccc2o1 [Example 38, Endo-N-(9-Methyl-9-azabicyclo[3.3.1]nonan-3-yl)-2-(2-methoxyethylamino)benzoxazole-4-carboxamide Hydrochloride]  7.5 nM
17. C[C@H]1CN(CC2CC2)C[C@H](C)N1c1nc2c(C(=O)NC3CC4CCCC(C3)N4C)cccc2o1 (stereo partly drawn) [Example 119, Endo-N-(9-methyl-9-azabicyclo[3.3.1]nonan-3-yl)-2-((2S,6S)-4-(cyclopropylmethyl)-2,6-dimethylpiperazin-1-yl)benzoxazole-4-carboxamide Hydrochloride]  6.6 nM
18. C[C@H]1CNC[C@H](C)N1c1nc2c(C(=O)NC3CC4CCCC(C3)N4C)cc(Cl)cc2o1 (stereo partly drawn) [Example 114, Endo-N-(9-methyl-9-azabicyclo[3.3.1]nonan-3-yl)-6-chloro-2-((2S,6S)-2,6-dimethylpiperazin-1-yl)benzoxazole-4-carboxamide Hydrochloride]  6.6 nM
19. CC(C)C[C@H]1CNCCN1c1nc2c(C(=O)NC3CC4CCCC(C3)N4C)cccc2o1 (stereo partly drawn) [Example 77, Endo-N-(9-Methyl-9-azabicyclo[3.3.1]nonan-3-yl)-2-((S)-2-isobutylpiperazine-1-yl)benzoxazole-4-carboxamide Hydrochloride]  6.4 nM
20. CCN(CC)c1nc2c(C(=O)N[C@@H]3CN4CCC3CC4)cccc2o1 [Example 115, (S)—N-(quinuclidine-8-yl)-2-diethylaminobenzoxazole-4-carboxamide Hydrochloride]  4.8 nM
21. CC[C@H]1COCCN1c1nc2c(C(=O)NC3CC4CCCC(C3)N4C)cccc2o1 (stereo partly drawn) [Example 36, Endo-N-(9-Methyl-9-azabicyclo[3.3.1]nonan-3-yl)-2-((S)-3-ethylmorpholine)benzoxazole-4-carboxamide Hydrochloride]  4.7 nM
22. CCNc1nc2c(C(=O)N[C@H]3C[C@H]4CCC[C@@H](C3)N4C)cccc2o1 [Example 105, Hydrochloride]  3.3 nM
23. C[C@H]1CN(C(=O)C2CCCCC2)C[C@H](C)N1c1nc2c(C(=O)NC3CC4CCCC(C3)N4C)cccc2o1 (stereo partly drawn) [Example 132, Endo-N-(9-methyl-9-azabicyclo[3.3.1]nonan-3-yl)-2-((2S,6S)-4-(cyclohexanecarbonyl)-2,6-dimethylpiperazin-1-yl)benzoxazole-4-carboxamide Hydrochloride]  1.9 nM
24. C[C@H]1CN(CC(F)(F)F)C[C@H](C)N1c1nc2c(C(=O)NC3CC4CCCC(C3)N4C)cccc2o1 (stereo partly drawn) [Example 137, Endo-N-(9-methyl-9-azabicyclo[3.3.1]nonan-3-yl)-2-((2S,6S)-2,6-dimethyl-4-(2,2,2-trifluoroethyl)piperazin-1-yl)benzoxazole-4-carboxamide Hydrochloride]  1.8 nM
